Data published in patent US7495126B2, “Process of preparation of substituted tetrafluorobenzylaniline compound and its pharmaceutically approved salts” (priority 2005, dated 2009).

Key:
[1] = Acute toxicity test in rats, single intravenous dose; type: in vivo; conditions: male, Sprague-Dawley, rat, in vivo, iv; rats, single i.v. dose, 14 days; read-out: Estimated LD50
[2] = test system: SD (Sprague Dawley) male rats; test: as above; type: in vivo; conditions: 14 days after administration
physchem = type: physicochemical; conditions: 25 °C, water, thermodynamic from solid
[3] = Stability test of oral preparation (powder in vial, HPLC); conditions: powder (solid)
Experimental: It was then stored at different temperatures (25° C., 40° C., 60° C.) for 6 months and the amount of active ingredients in powder were measured by HPLC.

O=C(O)c1cc(NCc2c(F)c(F)c(C(F)(F)F)c(F)c2F)ccc1O [free base form, 2-hydroxy-5-(2,3,5,6-tetrafluoro-4-trifluoromethyl-benzylamino)benzoic acid]
LD50 at 14 day [1]: 115 to 150 mg/kg
Number of dead animals/Number of drug-treated animals ([2]; 52 mg/kg single i.v. dose): 0/7
Number of dead animals/Number of drug-treated animals ([2]; 68 mg/kg single i.v. dose): 1/7
Number of dead animals/Number of drug-treated animals ([2]; 89 mg/kg single i.v. dose): 3/7
Number of dead animals/Number of drug-treated animals ([2]; 115 mg/kg single i.v. dose): 3/7
Number of dead animals/Number of drug-treated animals ([2]; 150 mg/kg single i.v. dose): 6/7
Number of dead animals/Number of drug-treated animals ([2]; 171 mg/kg single i.v. dose): 6/7
Number of dead animals/Number of drug-treated animals ([2]; 184 mg/kg single i.v. dose): 7/7
Number of dead animals/Number of drug-treated animals ([2]; 195 mg/kg single i.v. dose): 7/7

O=C([O-])c1cc(NCc2c(F)c(F)c(C(F)(F)F)c(F)c2F)ccc1O.[Li+] [lithium salt, lithium 2-hydroxy-5-(2,3,5,6-tetrafluoro-4-trifluoromethyl-benzylamino)benzoate]
solubility at 48 h (physchem): 500 mg/mL
Residual amount ([3]; 25° C., day 0): 98.56 ± 0.89%
Residual amount ([3]; 25° C., day 7): 98.32 ± 0.32%
Residual amount ([3]; 25° C., day 14): 97.69 ± 2.58%
Residual amount ([3]; 25° C., day 21): 96.87 ± 1.64%
Residual amount ([3]; 25° C., day 30): 95.01 ± 1.10%
Residual amount ([3]; 25° C., day 60): 94.78 ± 8.09%
Residual amount ([3]; 25° C., day 120): 92.69 ± 1.03%
Residual amount ([3]; 25° C., day 180): 90.85 ± 1.61%
Residual amount ([3]; 40° C., day 0): 98.56 ± 0.89%
Residual amount ([3]; 40° C., day 7): 98.16 ± 0.09%
Residual amount ([3]; 40° C., day 14): 96.18 ± 3.28%
Residual amount ([3]; 40° C., day 21): 96.02 ± 2.49%
Residual amount ([3]; 40° C., day 30): 95.96 ± 0.89%
Residual amount ([3]; 40° C., day 60): 95.70 ± 6.88%
Residual amount ([3]; 40° C., day 120): 95.58 ± 1.38%
Residual amount ([3]; 40° C., day 180): 95.40 ± 2.37%
Residual amount ([3]; 60° C., day 0): 98.56 ± 0.89%
Residual amount ([3]; 60° C., day 7): 97.49 ± 0.80%
Residual amount ([3]; 60° C., day 14): 96.45 ± 2.80%
Residual amount ([3]; 60° C., day 21): 95.87 ± 2.09%
Residual amount ([3]; 60° C., day 30): 95.69 ± 2.97%
Residual amount ([3]; 60° C., day 60): 95.51 ± 1.99%
Residual amount ([3]; 60° C., day 120): 94.84 ± 0.56%
Residual amount ([3]; 60° C., day 180): 92.48 ± 3.14%
